# In patent US20230276803A1, “A PESTICIDALLY ACTIVE MIXTURE COMPRISING THIETANYLOXY COMPOUND, OXIDES OR SALTS THEREOF” (PI INDUSTRIES LTD., priority 2020, published 2023):
# Read-outs that look alike come from different tables or passages of the source.
# Legend:
# Assay type in all cases: in vivo
# Plutella xylostella = experiment: Leaf dip method (cabbage) against Plutella xylostella (Example C); conditions: 72 h
# Text: (§1) In which E represents the expected percentage of inhibition of the pests for the combination of two insecticides or one insecticide and one fungicide at defined doses (for example equal to x and y respectively), x is the percentage of inhibition observed for the pest/disease by the compound (1) at a given dose (equal to x), y is the percentage of inhibition observed for the pest/disease by the compound (2) or (3) at a defined dose (equal to y). When the percentage of inhibition observed for the combination is greater than E, there is a synergistic effect.
# The leaf dip method was used, wherein the required quantity of the compound or respective compound combinations were weighed and dissolved in a test solution prepared in tubes. The tubes were put on a vortex at 2000 rpm for 90 min for proper mixing and then diluted with a 0.01% Triton-X solution to the desired test concentration. Cabbage leaves were dipped into the solution for 10 seconds, shade dried for 20 min and then transferred to single cells of bioassay trays. A single second instar larva was released into each cell and the tray was covered with a lid. The bio-assay trays were kept under laboratory conditions at a temperature of 25° C. and relative humidity of 70%. Observations on dead, moribund and live larvae were recorded 72 h after the release. Percent mortality was calculated by combining dead and moribund larvae and comparing the result with the one of the untreated control. The results are shown for compound of formula (I-1) in Table C.
# Alternaria solani = experiment: Preventive glasshouse test against Alternaria solani in tomato (Example G); conditions: 100 ppm, preventive spray
# Text: as §1
# (§2) The single compounds or respective compound combinations were dissolved in 2% dimethyl sulfoxide/acetone and then mixed with water containing emulsifier to a calibrated spray volume of 50 mL. The test solutions were poured into spray bottles for further applications.
# (§3) To test the preventive activity, healthy young tomato plants, raised in the greenhouse, were sprayed with the active compound preparation at the stated application rates inside the spray cabinets using hollow cone nozzles. One day after treatment, the plants were inoculated with a spore suspension containing 0.24×10^6 Alternaria solani inoculum and 2% Malt. The inoculated plants were then kept in a greenhouse chamber at a temperature of 22-24° C. and 90-95% relative humidity for disease expression.
# (§4) A visual assessment of the performance of the single compounds or compound combinations was carried out by rating the disease severity (0-100% scale) on treated plants 3, 7, 10 and 15 days after application. Efficacy (% control) of the single compounds and mixtures was calculated by comparing the disease rating in the treatment with the one of the untreated control. The compounds were also assessed for their plant compatibility by recording symptoms like necrosis, chlorosis and stunting. The results have been described for the compound of formula (I-1) in Table G.
# Spodoptera litura = experiment: Diet incorporation method against Spodoptera litura (Example B); conditions: 96 h; for pest or weed control at 10 ppm: read-out: Observed Efficacy (%), 10 ppm
# Text: as §1
# The diet incorporation method was used, in which semi-synthetic diet was incorporated into the test solution consisting either of the single compound or respective compound combinations, when the temperature was approximately 50° C. in the bioassay containers, then stirred thoroughly for proper mixing and allowed to cool for 30 min. The solidified diet was cut into equal pieces, and then each piece was transferred into one cell of the bio-assay trays. A single starved third instar larva was released into each of these cells of the bio-assay trays and the tray was covered with a lid. The bio-assay trays were kept under laboratory conditions at a temperature of 25° C. and relative humidity of 70%. Observations on dead, moribund and live larvae were recorded 96 h after the release. Percent mortality was calculated by combining dead and moribund larvae and comparing the result with the one of the untreated control. The results are shown for the compound of formula (I-1) in Table B.
# Phakopsora pachyrhizi = experiment: Preventive glasshouse test against Phakopsora pachyrhizi in soybean (Example H); conditions: preventive spray
# Text: as §1
# The single compounds or the respective compound combinations were dissolved in 2% dimethyl sulfoxide/acetone and then mixed with water containing an emulsifier to a calibrated spray volume of 50 ml. The test solutions were poured into spray bottles for further applications.
# as §3, with “activity of compounds,” for “activity,”, “Soybean” for “tomato”, “a” for “a spore”, “2×10^5 Phakopsora pachyrhizi conidia.” for “0.24×10^6 Alternaria solani inoculum and 2% Malt.”, “80-90%” for “90-95%”
# A visual assessment of the performance of the single compounds and respective compound combinations was carried out by rating the disease severity (0-100% scale) on treated plants 3, 7, 10 and 15 days after application. Efficacy (% control) of the compounds was calculated by comparing the disease rating in the treatment with the one of the untreated control. The compounds were also assessed for their plant compatibility by recording symptoms like necrosis, chlorosis and stunting. The results have been described for the compound of formula (I-1) in Table H.
# [1] = tested on: Parastagonospora nodorum/Septoria nodorum/Stagnospora nodorum; experiment: Preventive glasshouse test against Septoria nodorum in wheat (Example J); conditions: preventive spray
# Text: as §1, §2
# […] One day after treatment, the plants were inoculated with a spore suspension containing 2.8×10^6 Stagnospora nodorum inoculum.
# The inoculated plants were then kept in a greenhouse chamber at 22-25° C. temperature and 90-100% relative humidity for disease expression.
# as §4, with “J.” for “G.”
# Helicoverpa armigera = experiment: Diet incorporation method against Helicoverpa armigera (Example A); conditions: 96 h
# Text: as §1
# The diet incorporation method was used, in which semi-synthetic diet was incorporated into the test solutions consisting either of the single compounds or respective compound combinations, when the temperature was approximately 50° C. in the bio-assay containers, then stirred thoroughly for proper mixing and allowed to cool for 30 min. The solidified diet was cut into equal pieces, and then each piece was transferred into one cell of a bio-assay tray. A single starved third instar larva was released into each of these cells of the bio-assay trays and the tray was covered with a lid. The bio-assay trays were kept under laboratory conditions at a temperature of 25° C. and relative humidity of 70%. Observations on dead, moribund and live larvae were recorded 96 h after the release of the larvae. Percent mortality was calculated by combining dead and moribund larvae and comparing the result to the one of the untreated control. The results are shown for the compound of formula (I-1) in Table A.
# Erysiphe cichoracearum = experiment: Preventive glasshouse test against Erysiphe cichoracearum in cucumber (Example K); conditions: 50 ppm, preventive spray
# Text: as §1
# The single compounds or the respective compound combinations were dissolved in 2% dimethyl sulfoxide/acetone and then mixed with water containing emulsifier to a calibrated spray volume of 50 mL. The test solutions were poured into spray bottles for further applications. […]
# A visual assessment of the performance of the compounds and the respective compound combinations was carried out by rating the disease severity (0-100% scale) on treated plants 3, 7, 10 and 15 days after application. Efficacy (% control) of the single compounds or compound combinations was calculated by comparing the disease rating in the treatment with the one of the untreated control. The compounds were also assessed for their plant compatibility by recording symptoms like necrosis, chlorosis and stunting. […]
# [2] = Plutella xylostella, foliar, read-out: Observed Efficacy (%)
# [3] = Helicoverpa armigera, read-out: Observed Efficacy (%)
compound,measurement,setting,value
CC(COc1ccc(Oc2ccccc2)cc1)Oc1ccccn1 (stereo not shown) [Pyriproxyfen],pest or weed control at 0.05 ppm,Plutella xylostella; [2],12.5%
"COCC(=O)N(c1c(C)cccc1C)C(C)C(=O)OC (stereo not shown) [Metalaxyl, metalaxyl]",Observed Efficacy (%),Alternaria solani,17%
same,pest or weed control at 100 ppm,"Spodoptera litura; read-out: Observed Efficacy (%), 100 ppm",0%
"CO/C=C(/C(=O)OC)c1ccccc1Oc1cc(Oc2ccccc2C#N)ncn1 [Azoxystrobin, azoxystrobin]",Observed Efficacy (%),Phakopsora pachyrhizi; 0.1 ppm,39%
same,Observed Efficacy (%),[1]; 0.05 ppm,12%
same,Observed Efficacy (%),[1]; 0.1 ppm,24%
"C=CCOC1=NS(=O)(=O)c2ccccc21 [Probenazole, probenazole]",pest or weed control at 200 ppm,Helicoverpa armigera; [3],12.5%
"CON=CNC(=O)c1ccc(C2=NOC(c3cc(Cl)cc(Cl)c3)(C(F)(F)F)C2)cc1C (stereo not shown) [Fluxametamide, fluxametamide]",Observed Efficacy (%),Helicoverpa armigera; 0.13 ppm,12.5%
same,Observed Efficacy (%),Helicoverpa armigera; 0.28 ppm,12.5%
spinetoram,Observed Efficacy (%),Helicoverpa armigera; 2.5 ppm,87.5%
"CN/C(=N\[N+](=O)[O-])NCc1cnc(Cl)s1 [Clothianidin, clothianidin]",pest or weed control at 0.1 ppm,Plutella xylostella; [2],0%
same,pest or weed control at 10 ppm,Spodoptera litura,0%
"COC(=O)N(OC)c1ccccc1COc1ccn(-c2ccc(Cl)cc2)n1 [Pyraclostrobin, pyraclostrobin]",pest or weed control at 200 ppm,Helicoverpa armigera; [3],0%
same,pest or weed control at 500 ppm,"Helicoverpa armigera; Helicoverpa armigera, 500 ppm, read-out: Observed Efficacy (%)",0%
same,pest or weed control at 200 ppm,"Spodoptera litura; read-out: Observed Efficacy (%), 200 ppm",0%
same,pest or weed control at 500 ppm,"Spodoptera litura; read-out: Observed Efficacy (%), 500 ppm",0%
"CCS(=O)(=O)c1cccnc1-c1nc2cc(S(=O)(=O)C(F)(F)F)ccc2o1 [Oxazosulfyl, 2-[3-(ethanesulfonyl)pyridin-2-yl]-5-[trifluoro(methanesulfonyl)]-1,3-benzoxazole]",pest or weed control at 0.1 ppm,Plutella xylostella; [2],0%
same,pest or weed control at 100 ppm,"Spodoptera litura; 100 ppm, read-out: Observed Efficacy (%)",0%
"N#Cc1c[nH]cc1-c1cccc2c1OC(F)(F)O2 [Fludioxonil, fludioxonil]",pest or weed control at 100 ppm,"Helicoverpa armigera; Helicoverpa armigera, 100 ppm, read-out: Observed Efficacy (%)",0%
"CCOCn1c(-c2ccc(Cl)cc2)c(C#N)c(Br)c1C(F)(F)F [Chlorfenapyr, chlorfenapyr]",pest or weed control at 0.15 ppm,"Plutella xylostella; Plutella xylostella, foliar, 0.15 ppm, read-out: Observed Efficacy (%)",62.5%
same,pest or weed control at 0.2 ppm,"Plutella xylostella; Plutella xylostella, foliar, 0.2 ppm, read-out: Observed Efficacy (%)",75%
"N#Cc1ccc(CC(=NNC(=O)Nc2ccc(OC(F)(F)F)cc2)c2cccc(C(F)(F)F)c2)cc1 (mixture of isomers) [Metaflumizone, metaflumizone]",Observed Efficacy (%),Plutella xylostella; 0.001 ppm,12.5%
"Cn1cc(C(=O)Nc2ccccc2-c2cc(F)c(F)c(F)c2)c(C(F)F)n1 [Fluxapyroxad, fluxapyroxad]",Observed Efficacy (%),Phakopsora pachyrhizi; 0.05 ppm,41%
"COC(=O)NC(=S)Nc1ccccc1NC(=S)NC(=O)OC [Thiophanate-methyl, thiophanate-methyl]",Observed Efficacy (%),Erysiphe cichoracearum,29%
"CCc1nc2cc(C)c(Oc3ccc(OC(F)(F)F)cc3)cc2c(OC(=O)OC)c1C [Flometoquin, flometoquin]",Observed Efficacy (%),Plutella xylostella; 0.001 ppm,0%
same,Observed Efficacy (%),Plutella xylostella; 0.005 ppm,62.5%
"O=[N+]([O-])NC1=NCCN1Cc1ccc(Cl)nc1 [Imidacloprid, imidacloprid]",pest or weed control at 0.1 ppm,Plutella xylostella; [2],0%
same,pest or weed control at 50 ppm,"Spodoptera litura; read-out: Observed Efficacy (%), 50 ppm",25%
"CC1=NNC(=O)N(/N=C/c2cccnc2)C1 [Pymetrozine, pymetrozine]",pest or weed control at 0.01 ppm,"Plutella xylostella; Plutella xylostella, foliar, 0.01 ppm, read-out: Observed Efficacy (%)",0%
same,pest or weed control at 0.05 ppm,Plutella xylostella; [2],0%
"Cc1c(COC(=O)[C@@H]2[C@H](/C=C(\Cl)C(F)(F)F)C2(C)C)cccc1-c1ccccc1 (racemic) [Bifenthrin, bifenthrin]",pest or weed control at 1 ppm,Plutella xylostella; [2],25%
same,pest or weed control at 20 ppm,"Helicoverpa armigera; Helicoverpa armigera, 20 ppm, read-out: Observed Efficacy (%)",75%
same,pest or weed control at 10 ppm,Spodoptera litura,12.5%
"N#Cc1nn(-c2c(Cl)cc(C(F)(F)F)cc2Cl)c(N)c1[S+]([O-])C(F)(F)F (stereo not shown) [Fipronil, fipronil]",pest or weed control at 0.005 ppm,"Plutella xylostella; Plutella xylostella, foliar, 0.005 ppm, read-out: Observed Efficacy (%)",50%
CCN(C(=O)CCSCCC(F)(F)F)c1cn(-c2cccnc2)nc1Cl [Tyclopyrazoflor],Observed Efficacy (%),Helicoverpa armigera; 100 ppm,12.5%
"CN1COCN(Cc2cnc(Cl)s2)/C1=N\[N+](=O)[O-] [Thiamethoxam, thiamethoxam]",pest or weed control at 1 ppm,Plutella xylostella; [2],12.5%
"FC(F)(F)c1ccc(OCCCOc2c(Cl)cc(OCC=C(Cl)Cl)cc2Cl)nc1 [Pyridalyl, pyridalyl]",pest or weed control at 0.002 ppm,"Plutella xylostella; Plutella xylostella, foliar, 0.002 ppm, read-out: Observed Efficacy (%)",50%
